Calls of active or inactive are those of the source. The rule behind the calls is not given here. Residues, ends and D or L forms follow the SMILES beside them. *: point of attachment. Cbz = O=C(OCc1ccccc1)*

System in the first experiment: not listed separately
Nature of the experiment: mammalian cell cytotoxicity, dose response, cytotoxicity control for M. tuberculosis growth inhibitor project, purified and synthesized compounds, set 2 (AID 504562). The settings on record: mammalian cell viability, cytotoxicity counter-screen; at 100 µM (top of the series). Background: A counterscreen serves to expose hits that act by an unwanted route or on another target.
Usually viability stands for a read-out of living cells in per cent, often relative to untreated cells. Regarding `COC(=O)CCc1nc2c(C#N)c(-c3ccc(Cl)cc3)ccn2n1`, the viability was 99.6% (inactive). The same measure, in the same setting: then `CC1CCN(C(=O)C2CCN(c3nnc(-n4cccc4)s3)CC2)CC1`, with 92.8% (inactive). As to `Cc1nc(SCC(=O)NC2CCCCC2)[nH]c(=O)c1C`, the viability was 91.7% (inactive). Same read-out and setting: to `CCOC(=O)COn1c2c(c3c4no[n+]([O-])c4ccc31)CCCC2` belongs 87.9% (inactive); to `CCc1ccc(/C=C2/C(=O)N(C)C(=S)N2CC(=O)OC)s1`, 101% (inactive); to `Cc1ccc(NC(=O)C2C3/C=C\CCCCC32)cc1C` (stereo unspecified), 97% (inactive). The same measure, in the same setting: then `O=C(CSc1nc2ccccc2c(=O)[nH]1)NCc1ccc(Cl)cc1`, with 89.5% (inactive); and `Cc1ccc2ccc3ccc(C)nc3c2n1`, with 68.3% (inactive). Still for that read-out and setting: to `COc1cc(NC(=O)C/C(C)=N/NC(=O)c2ccccn2)c(OC)cc1Cl` belongs 103% (inactive). With `CC(=NCc1ccc2c(c1)OCO2)C1=C(O)c2ccccc2C1=O`, the viability is 88.7% (inactive). As for `CCOC(=O)COc1ccc(/C=C2\NC(=S)N(CC)C2=O)cc1`, the viability is 91.2% (inactive). Turning to `CC[N+](C)(CC)CCCCOc1ccc2c(c1)C(=O)c1cc(OCCCC[N+](C)(CC)CC)ccc1-2`, the viability is 101% (inactive). On the same count and under the same terms, to `COC(=O)C(C)Oc1ccc(-c2nccc(-c3ccccn3)n2)cc1` (stereo unspecified) belongs 100% (inactive); to `O=C1C(Br)=Cc2cccc3cccc1c23`, 89.2% (inactive). Same read-out and setting: then `CCOC1OC(=O)C(Cl)=C1Nc1ccccc1C` (stereo unspecified), with 91.1% (inactive); and `O=C(/C=C\c1cccs1)N1CCN(Cc2ccc3c(c2)OCO3)CC1`, with 91.2% (inactive); and `COC(=O)c1ccc(CNc2c(N3CCCC3)c(=O)c2=O)cc1`, with 97.3% (inactive).

On to `Nc1c(C(=O)NC2CCCCC2)nsc1C(=O)OCC(=O)NC1CCCCC1`, for which the viability is 93.5% (inactive). In the case of `O=C(CSc1nc2ccccc2c(=O)[nH]1)NC1CCCCC1`, the viability was 97.5% (inactive). The same measure, in the same setting: then `COC(=O)C1CC(=O)N(c2ccc(OCc3ccccc3Cl)cc2)C1` (stereo unspecified), with 100% (inactive).

Another experiment has as its system mammalian cell viability, cytotoxicity counter-screen. The experiment is described as above.
Conditions: not given
The term CC50 denotes the concentration giving 50% cytotoxicity. Take `CCOC(=O)c1ccc(NC(=O)Cn2ncc(Cl)c(Cl)c2=O)cc1`: the CC50 was 7.7 µM. The same measure, in the same setting: then `Cc1ccc(C(=O)N/N=C(/CC(=O)c2cccs2)C(F)(F)F)cc1`, with 31.7 µM. Same read-out and setting: to `CCOC(=O)CNC(=O)[C@H](Cc1ccccc1)NC(=O)OCc1ccccc1` (Cbz-Phe-Gly-OEt) belongs 68.9 µM; to `Cc1cccc(/C=C/C(=O)c2ccc([N+](=O)[O-])o2)c1`, 53.1 µM. Same read-out and setting: to `CNc1nc(SCc2ccccc2Cl)nc2c1CCCC2` belongs 46.1 µM; to `COC(=O)c1cc(=O)n(-c2ccc(F)cc2)c(=Nc2ccc(F)cc2)s1`, 20.8 µM; to `CC(C)NC(=O)c1sc(=S)n2c1[nH]c(=O)c1ccc(C(=O)NCCc3ccc(Cl)cc3)cc12`, 68.8 µM.

Regarding `S=c1nc[nH]c2nc[nH]c12`, the CC50 is 38.1 µM. Same read-out and setting: to `CCC(C)Nc1ccc(NC(C)CC)cc1` (stereo unspecified) belongs 16.5 µM; to `COC(=O)C(Nc1nc(SCC(=O)NC2CCCCC2)nc2ccccc12)c1ccccc1` (stereo unspecified), 88 µM. Still for that read-out and setting: then `Cc1ccc2c(c1)c(C1=c3ccccc3=NC1=O)c(O)n2C`, with 14.3 µM.

(Values after PubChem BioAssay AID504562 (Southern Research Specialized Biocontainment Screening …, 2011).)
